According to patent publication US7498441B2, “Biaryltetrahydroisoquinoline piperidines as selective MCH receptor antagonists for the treatment of obesity and related disorders” (Schering Corporation, priority 2003, dated 2009):
pKi: −log10 of the molar value.

biological target: T1, MCH receptor (Homo sapiens, UniProt Q99705); experiment: MCH Receptor Binding Assay ([125I]-MCH, SPA, membranes from CHO cells expressing the MCH receptor); conditions: MCH Receptor Activity (Preferred Compounds); dissociation constants; read-out: Ave KiMCH
T1 construct: expressed in transfected cells; host or cells: CHO cells
T1 sequence (Q99705 whole entry): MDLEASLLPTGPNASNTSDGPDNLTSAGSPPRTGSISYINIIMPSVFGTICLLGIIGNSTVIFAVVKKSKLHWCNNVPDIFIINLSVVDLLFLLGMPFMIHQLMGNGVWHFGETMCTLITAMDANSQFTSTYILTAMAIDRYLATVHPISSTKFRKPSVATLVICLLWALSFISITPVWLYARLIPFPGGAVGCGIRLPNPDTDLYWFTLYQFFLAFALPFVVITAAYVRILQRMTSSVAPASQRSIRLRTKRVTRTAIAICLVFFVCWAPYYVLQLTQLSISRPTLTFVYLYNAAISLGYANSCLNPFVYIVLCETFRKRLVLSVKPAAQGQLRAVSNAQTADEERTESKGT
Description: Membranes from CHO cells expressing the MCH receptor were prepared by lysing cells with 5 mM HEPES for 15 min at 4 C. Cell lysates were centrifuged ([…], 15 min) and the pellet was resuspended in 5 mM HEPES. For each 96-well plate (Microlite, Dynex Technologies), 1 mg of cell membranes were incubated with 10 mg of wheat germ agglutinin SPA beads (Amersham) for 5 min at 4 C in a volume of 10 ml of binding buffer (25 mM HEPES, 10 mM MGCl2, 10 mM NaCl, 5 mM MnCl2, 0.1% BSA). The membrane/bead mixture was centrifuged (1500×g, 3.5 min), the supernatant was aspirated, and the pellet was resuspended in 10 ml binding buffer. The centrifugation, aspiration and resuspension were then repeated. The membrane/bead mixture (100 μl) was then added to 96-well plates containing 50 μl of 500 pM [^125I]-MCH (NEN) and […] of the appropriate concentration of compound (4× the desired final concentration). Nonspecific binding was determined by including 1 μM MCH in the binding reaction. The binding reaction was incubated at room temperature for 2 h. Plates were then analyzed in a TOPCOUNT microplate scintillation counter (Packard). Data was analyzed and Ki values for the compounds of Formula 1 were determined using GraphPad Prim.

`N#Cc1cccc(-c2ccc3c(c2)CCN(CC(=O)Nc2cc(Cl)cc(Cl)c2)C3C2CCNCC2)c1` (stereo not shown) [Example 20] and `CN1CCC(C2c3ccc(-c4cccc(C#N)c4)cc3CCN2CC(=O)Nc2cc(Cl)cc(Cl)c2)CC1` (stereo not shown) [Example 17] are within 0.2 log units of each other in pKi: 7.59 for the first, 7.66 for the second.

`O=C(CN1CCc2cc(-c3cccnc3)ccc2C1C1CCN(C2CCCC2)CC1)Nc1cc(Cl)cc(Cl)c1` (stereo not shown) [Example 16] and `O=C(CN1CCc2cc(-c3ccncc3)ccc2C1C1CCN(C2CCCC2)CC1)Nc1cc(Cl)cc(Cl)c1` (stereo not shown) [Example 12] are within 0.2 log units of each other in pKi: 7.64 for the first, 7.62 for the second.

First: N#Cc1cccc(-c2ccc3c(c2)CCN(CC(=O)Nc2cc(Cl)cc(Cl)c2)C3C2CCN(C3CCOCC3)CC2)c1 (stereo not shown) [Example 24]
Second: N#Cc1cccc(-c2ccc3c(c2)CCN(CC(=O)Nc2cc(Cl)cc(Cl)c2)C3C2CCN(C3CCC3)CC2)c1 (stereo not shown) [Example 29]
The pKi of the first is 0.37 log units higher: 8.19 for the first, 7.82 for the second.

`N#Cc1cccc(-c2ccc3c(c2)CCN(CC(=O)Nc2cc(Cl)cc(Cl)c2)C3C2CCN(CC3CC3)CC2)c1` (stereo not shown) [Example 28] and `N#Cc1cccc(-c2ccc3c(c2)CCN(CC(=O)Nc2cc(Cl)cc(Cl)c2)C3C2CCN(C3CCCC3)CC2)c1` (stereo not shown) [Example 1] are within 0.2 log units of each other in pKi: 8.03 for the first, 7.95 for the second.

`N#Cc1cccc(-c2ccc3c(c2)CCN(CC(=O)Nc2cc(Cl)cc(Cl)c2)C3C2CCN(Cc3ccccc3)CC2)c1` (stereo not shown) [Example 19] and `COc1ccccc1CN1CCC(C2c3ccc(-c4cccc(C#N)c4)cc3CCN2CC(=O)Nc2cc(Cl)cc(Cl)c2)CC1` (stereo not shown) [Example 27] are within 0.2 log units of each other in pKi: 7.64 for the first, 7.80 for the second.

Compared with `N#Cc1cccc(-c2ccc3c(c2)CCN(CC(=O)Nc2cc(Cl)cc(Cl)c2)C3C2CCN(Cc3ccoc3)CC2)c1` (stereo not shown) [Example 26], `N#Cc1cccc(-c2ccc3c(c2)CCN(CC(=O)Nc2cc(Cl)cc(Cl)c2)C3C2CCN(CCCCCO)CC2)c1` (stereo not shown) [Example 21] is 0.32 log units higher in pKi: 7.85 for the first, 8.17 for the second. The second binds more tightly here.

`N#Cc1cccc(-c2ccc3c(c2)CCN(CC(=O)Nc2cc(Cl)cc(Cl)c2)C3C2CCN(C3CCCCCC3)CC2)c1` (stereo not shown) [Example 22] and `N#Cc1cccc(-c2ccc3c(c2)CCN(CC(=O)Nc2cc(Cl)cc(Cl)c2)C3C2CCN(C3CCCCC3)CC2)c1` (stereo not shown) [Example 32] are the same in pKi: 8.00 for the first, 8.00 for the second.

For `N#Cc1cccc(-c2ccc3c(c2)CCN(CC(=O)Nc2cc(Cl)cc(Cl)c2)C3C2CCN(C3CCSC3)CC2)c1` (stereo not shown) [Example 25], the pKi was 8.15.

same assay, conditions: MCH Receptor Antagonist Activity; rated A/B/C; read-out: Av. MCH Ki

First: CN1CCC(C2c3ccc(-c4cccc(C#N)c4)cc3CCN2Cc2nc3cc(Cl)c(Cl)cc3[nH]2)CC1 (stereo not shown) [Example 44]
Second: N#Cc1cccc(-c2ccc3c(c2)CCN(Cc2nc4cc(Cl)c(Cl)cc4[nH]2)C3C2CCN(Cc3ccccc3)CC2)c1 (stereo not shown) [Example 43]
The pKi of the first is lower: 6.30 to 7.00 for the first, 7.00 to 9.00 for the second.

First: CC(=O)N1CCC(C2c3ccc(-c4cccc(C#N)c4)cc3CCN2CC(=O)Nc2cc(Cl)cc(Cl)c2)CC1 (stereo not shown) [Example 35]
Second: CCN(CC)C(=O)N1CCC(C2c3ccc(-c4cccc(C#N)c4)cc3CCN2CC(=O)Nc2cc(Cl)cc(Cl)c2)CC1 (stereo not shown) [Example 34]
The pKi of the first is lower: under 6.30 for the first, 6.30 to 7.00 for the second.

`CCS(=O)(=O)N1CCC(C2c3ccc(-c4cccc(C#N)c4)cc3CCN2CC(=O)Nc2cc(Cl)cc(Cl)c2)CC1` (stereo not shown) [Example 39] and `CS(=O)(=O)N1CCC(C2c3ccc(-c4cccc(C#N)c4)cc3CCN2CC(=O)Nc2cc(Cl)cc(Cl)c2)CC1` (stereo not shown) [Example 36] cannot be ordered by pKi: under 6.30 for the first, under 6.30 for the second.

First: O=C(CN1CCc2cc(-c3cccc(C(F)(F)F)c3)ccc2C1C1CCN(C2CCCC2)CC1)Nc1cc(Cl)cc(Cl)c1 (stereo not shown) [Example 1]
Second: O=C(CN1CCc2cc(-c3cccc(OC(F)(F)F)c3)ccc2C1C1CCN(C2CCCC2)CC1)Nc1cc(Cl)cc(Cl)c1 (stereo not shown) [Example 8]
The pKi of the first is lower: 6.30 to 7.00 for the first, 7.00 to 9.00 for the second. The second binds more tightly here.

Compared with `O=C(CN1CCc2cc(-c3ccccc3)ccc2C1C1CCN(C2CCCC2)CC1)Nc1cc(Cl)cc(Cl)c1` (stereo not shown) [Example 2], `O=C(CN1CCc2cc(-c3cccc(Cl)c3)ccc2C1C1CCN(C2CCCC2)CC1)Nc1cc(Cl)cc(Cl)c1` (stereo not shown) [Example 5] is higher in pKi: 6.30 to 7.00 for the first, 7.00 to 9.00 for the second.

First: N#Cc1cccc(-c2ccc3c(c2)CCN(CC(=O)Nc2cc(Cl)cc(Cl)c2)C3C2CCN(Cc3nccs3)CC2)c1 (stereo not shown) [Example 38]
Second: N#Cc1cccc(-c2ccc3c(c2)CCN(CC(=O)Nc2cc(Cl)cc(Cl)c2)C3C2CCN(Cc3ccccc3)CC2)c1 (stereo not shown) [Example 19]
The pKi of the first is lower: 6.30 to 7.00 for the first, 7.00 to 9.00 for the second. The second binds more tightly here.

`O=C(CN1CCc2cc(-c3ccc[nH]3)ccc2C1C1CCN(C2CCCC2)CC1)Nc1cc(Cl)cc(Cl)c1` (stereo not shown) [Example 15] and `O=C(CN1CCc2cc(-c3ccsc3)ccc2C1C1CCN(C2CCCC2)CC1)Nc1cc(Cl)cc(Cl)c1` (stereo not shown) [Example 13] fall in the same range of pKi: 6.30 to 7.00 for the first, 6.30 to 7.00 for the second.

First: CN(C)S(=O)(=O)N1CCC(C2c3ccc(-c4cccc(C#N)c4)cc3CCN2CC(=O)Nc2cc(Cl)cc(Cl)c2)CC1 (stereo not shown) [Example 37]
Second: CC(C)N1CCC(C2c3ccc(-c4cccc(C#N)c4)cc3CCN2CC(=O)Nc2cc(Cl)cc(Cl)c2)CC1 (stereo not shown) [Example 31]
The pKi of the first is lower: 6.30 to 7.00 for the first, 7.00 to 9.00 for the second. The second binds more tightly here.

First: N#Cc1cccc(-c2ccc3c(c2)CCN(CC(=O)Nc2cc(Cl)cc(Cl)c2)C3C2CCN(C(=O)C3CCCC3)CC2)c1 (stereo not shown) [Example 33]
Second: CN1CCC(N2CCC(C3c4ccc(-c5cccc(C#N)c5)cc4CCN3CC(=O)Nc3cc(Cl)cc(Cl)c3)CC2)CC1 (stereo not shown) [Example 23]
The pKi of the first is lower: under 6.30 for the first, 7.00 to 9.00 for the second. The second binds more tightly here.

`N#Cc1cccc(-c2ccc3c(c2)CCN(C(=O)Nc2ccc(Cl)c(Cl)c2)C3C2CCN(Cc3ccccc3)CC2)c1` (stereo not shown) [Example 41] and `N#Cc1cccc(-c2ccc3c(c2)CCN(C(=O)Nc2cc(Cl)cc(Cl)c2)C3C2CCN(Cc3ccccc3)CC2)c1` (stereo not shown) [Example 40] cannot be ordered by pKi: under 6.30 for the first, under 6.30 for the second.

First: O=C(CN1CCc2cc(-c3cccc4cccnc34)ccc2C1C1CCN(C2CCCC2)CC1)Nc1cc(Cl)cc(Cl)c1 (stereo not shown) [Example 20]
Second: O=C(CN1CCc2cc(-c3cccc(-c4ncc[nH]4)c3)ccc2C1C1CCN(C2CCCC2)CC1)Nc1cc(Cl)cc(Cl)c1 (stereo not shown) [Example 14]
The pKi of the first is lower: under 6.30 for the first, 7.00 to 9.00 for the second. The second binds more tightly here.

First: N#Cc1cccc(-c2ccc3c(c2)CCN(Cc2nc4cc(F)c(Cl)cc4[nH]2)C3C2CCN(Cc3ccccc3)CC2)c1 (stereo not shown) [Example 45]
Second: N#Cc1cccc(-c2ccc3c(c2)CCN(Cc2nc4ccccc4[nH]2)C3C2CCN(Cc3ccccc3)CC2)c1 (stereo not shown) [Example 42]
The pKi of the first is higher: 7.00 to 9.00 for the first, 6.30 to 7.00 for the second. The first binds more tightly here.

`O=C(CN1CCc2cc(-c3cc(Cl)ccc3Cl)ccc2C1C1CCN(C2CCCC2)CC1)Nc1cc(Cl)cc(Cl)c1` (stereo not shown) [Example 10] and `O=C(CN1CCc2cc(-c3cccc(F)c3)ccc2C1C1CCN(C2CCCC2)CC1)Nc1cc(Cl)cc(Cl)c1` (stereo not shown) [Example 4] fall in the same range of pKi: 7.00 to 9.00 for the first, 7.00 to 9.00 for the second.

`COc1cccc(-c2ccc3c(c2)CCN(CC(=O)Nc2cc(Cl)cc(Cl)c2)C3C2CCN(C3CCCC3)CC2)c1` (stereo not shown) [Example 6] and `O=Cc1cccc(-c2ccc3c(c2)CCN(CC(=O)Nc2cc(Cl)cc(Cl)c2)C3C2CCN(C3CCCC3)CC2)c1` (stereo not shown) [Example 9] fall in the same range of pKi: 7.00 to 9.00 for the first, 7.00 to 9.00 for the second.

First: N#Cc1cccc(-c2ccc3c(c2)CCN(CC(=O)Nc2cc(Cl)cc(Cl)c2)C3C2CCN(CCCc3ccccc3)CC2)c1 (stereo not shown) [Example 30]
Second: N#Cc1ccc(-c2ccc3c(c2)CCN(CC(=O)Nc2cc(Cl)cc(Cl)c2)C3C2CCN(C3CCCC3)CC2)cc1 (stereo not shown) [Example 3]
The pKi of the first is higher: 7.00 to 9.00 for the first, 6.30 to 7.00 for the second.

`O=C(CN1CCc2cc(-c3cccc(C(=O)O)c3)ccc2C1C1CCN(C2CCCC2)CC1)Nc1cc(Cl)cc(Cl)c1` (stereo not shown) [Example 18] was tested, and the pKi was under 6.30.
